Patent publication US12329799B2, “Peptidyl inhibitors of calcineurin-NFAT interaction” (Ohio State Innovation Foundation, priority 2018, dated 2025)
Positions of bridges follow the written chain, without caps; N, C: chain ends. Non-standard residues stand in square brackets, D forms with d. Residues, ends and D or L forms follow the SMILES beside them. Chains are numbered I, II in the order given. *: point of attachment. Benzoyl(2,3-Cl2) = O=C(c1cccc(Cl)c1Cl)*; 2Nal = N[C@@H](Cc1ccc2ccccc2c1)C(=O)O; Tle = CC(C)(C)[C@H](N)C(=O)O; βAla = NCCC(=O)O

How the values were obtained:
[1] = system: LPS-induced TNFα and IL-6 secretion, mouse total lung macrophages; experiment: Inhibition of TNFα and IL-6 secretion by macrophage; format: cell-based; settings: 100 nM, 1 μM, or 10 μM for 2 h, then LPS 6 h
Experimental: Mouse total lung macrophages were obtained from 5 mice and pooled. Macrophages were pretreated with 100 nM, 1 μM, or 10 μM inhibitor for 2 h and stimulated with LPS ([…]) or PBS for 6 h. Cell supernatants were collected and analyzed for TNFα levels (FIG. 20A) or IL-6 levels (FIG. 20B) by R&D Systems TNFα ELISA kit and R&D Systems IL-6 ELISA kit.

[2] = system: LPS-induced acute lung injury (ALI) in mice; experiment: LPS sepsis-induced acute lung injury, intranasal CNI93; format: in vivo, mouse; settings: i.n. 10 mg/kg
Experimental: As expected, LPS challenge of CPP9-VAVAA (SEQ ID NO: 224) treated mice increased the total protein in BALF by ˜2-fold and TNFα and IL-6 levels in BALF (FIGS. 11A, 11B, and 11D, respectively).
Mouse models of LPS sepsis. Mouse LPS sepsis-induced acute lung injury models were established by intraperitoneal injection of LPS at 10 mg/kg body weight. Acute lung injury was assessed by measuring secretion of TNFα, IL6 in to broncho alveolar lavage fluid (BALF), plasma levels of IL6 and TNFα, and neutrophilic infiltration. Pulmonary edema was measured by increased protein levels in BALF. Neutrophilic infiltration in to bronchoalveolar lavage fluid is determined by Hema 3.0 staining and number of neutrophils in BALF is quantitated.
Neutrophilic inflammation. BALF fluid from different treatment groups of mice was used to prepare Cytospin slides, stained using Hema 3 and number of neutrophils and macrophages per field view of microscopic view were counted and differences among groups calculated.

H441 (lung cancer) cells = experiment: MTT assay, H441; format: cell-based; settings: 72 h
Experimental: (§1) MTT Proliferation Assay. HeLa, Jurkat-Lucia, or H441 cells were seeded into a 96-well microplate (5000 cells per well) in full growth media and incubated at 37° C. overnight. A serial dilution of each compound was prepared in DPBS and then added to each well. The treated cells were incubated at 37° C. with 5% CO2 for 72 h. Following compound treatment, 10 μL of MTT stock solution was added to each well. After an additional 4 h at 37° C., 100 μL of SDS-HCl solubilizing solution was added to each well and the plate was returned to the incubator overnight at 37° C. A Tecan Infinite M1000 Pro microplate reader was used the following morning to measure the absorbance of the formazan product at 565 nm.

[3] = system: LPS-induced TNFα production in lung macrophages; experiment: LPS-induced TNFα secretion by lung macrophages (ELISA); format: cell-based, mouse
Description: Cell supernatants were collected and analyzed for TNFα levels by R&D systems TNFα ELISA kit.

[4] = system: NFATc3 nuclear translocation; experiment: LPS-induced NFATc3 nuclear translocation in macrophages (immunofluorescence); format: cell-based, mouse; settings: 1 μM peptide pretreatment, LPS stimulation
Experimental: Endotoxin lipopolysaccharide (LPS) was previously shown to induce NFATc3 translocation from the cytoplasm into the nucleus and upregulation of NFATc3 target genes in macrophages.
Immunofluorescence. Mouse BMDM were pretreated with 1 μM of control CPP9 (SEQ ID NO: 76)-VAVAA (SEQ ID NO: 224)-Biotin or CNI93-Biotin peptides for 5 min and stimulated with PBS or LPS (100 ng/mL) for 1 h. Treated cells were washed, fixed in 4% paraformaldehyde and incubated sequentially with anti-rabbit NFATc3, Anti-rabbit Alexa Fluor™ 488 Conjugate and Alexa Fluor™ 594 Streptavidin. Cells were washed three times in 1×PBS after incubation with each antibody.

HeLa cells [5] = experiment: Cytosolic delivery assay (NF-labeled peptides, flow cytometry); format: cell-based; settings: 5 μM, 2 h, relative to CPP9 = 100%
Experimental: The NF fluorescence intensity of the treated cells therefore reflects the amount of the peptide that has reached the cytosol and nucleus of the cells. […] Live-cell confocal microscopic analysis confirmed that CNI93 reached the interior of HeLa cells.
Cytosolic Delivery Assay. HeLa cells maintained in DMEM supplemented with 10% FBS and 1% penicillin/streptomycin were seeded into 12-well plates (1.5×10^5 cells per well) and incubated overnight at 37° C., 5% CO2. The following day, the cells were washed with DPBS and incubated with 5 μM NF-labeled peptides dissolved in DMEM containing 10% FBS, 1% penicllin/streptomycin for 2 h at 37° C. in the presence of 5% CO2. After that, the cells were washed with DPBS and harvested from the plate by treatment with 0.25% trypsin for 5 min. Cells were centrifuged at 300×RCF, washed twice with cold DPBS, and resuspended in cold DPBS for flow cytometry analysis on a BD LSR II flow cytometer followed by data analysis and gating using Flowjo. Calculation of cytosolic uptake efficiencies was carried out as previously described by Qian, Z., et al., Discovery and Mechanism of Highly Efficient Cyclic Cell-Penetrating Peptides. Biochemistry 2016, 55, 2601-2612.

HeLa cells [6] = experiment: MTT assay, HeLa; format: cell-based; settings: 72 h
Experimental: as §1
Potential cytotoxicity of CNI101 (SEQ ID NO: 206) and CNI103 (SEQ ID NO: 208) was tested on HeLa cells by the MTT proliferation assay. HeLa cells were seeded into a 96-well microplate (5000 cells per well) in full growth media and incubated at 37° C. overnight. A serial dilution of each inhibitor was prepared in DPBS and then added to each well. The treated cells were incubated at 37° C. with 5% CO2 for 72 h. Following compound treatment, 10 μL of MTT stock solution was added to each well. After an additional 4 h at 37° C., 100 μL of SDS-HCl solubilizing solution was added to each well and the plate was returned to the incubator overnight at 37° C. A Tecan Infinite M1000 Pro microplate reader was used the following morning to measure the absorbance of the formazan product at 565 nm.

## CC[C@H](C)[C@H](NC(=O)[C@@H](NC(=O)c1cccc(Cl)c1Cl)C(C)(C)C)C(=O)N[C@H](C(=O)N[C@H](C(=O)N[C@H](C(=O)N[C@@H](CCC(N)=O)C(=O)N[C@@H](Cc1c[nH]cn1)C(=O)N[C@H](CC(C)C)C(=O)N[C@@H](CO)C(=O)NCCC(=O)N[C@@H](CCCCNC(=O)CC[C@@H]1NC(=O)[C@@H](CCCNC(=N)N)NC(=O)[C@H](CCCNC(=N)N)NC(=O)[C@@H](CCCNC(=N)N)NC(=O)[C@H](CCCNC(=N)N)NC(=O)[C@H](Cc2ccc3ccccc3c2)NC(=O)[C@@H](Cc2ccccc2)NC1=O)C(N)=O)[C@@H](C)O)[C@@H](C)CC)C(C)(C)C [CNI93] (I: {Benzoyl(2,3-Cl2)}-[Tle]I[Tle]ITQH[dL]S[βAla]K-NH2 / II: cyclo([2Nal]R[dR]R[dR]E[dF]); amide I:11-II:6 (inferred); ring closure inferred)
[1]
  secreted amounts of TNFα and IL6: dose-dependently reduced
[2]; 1 h before LPS i.p. 10 mg/kg
  neutrophilic infiltration into the lungs: prevented
  protection from LPS-induced production of cytokines and protein leakage into BALF: almost completely protected
[2]; LPS sepsis mice
  decrease of plasma level of IL6: ~4 fold
  decrease of plasma level of TNFα: ~4 fold
H441 (lung cancer) cells; H441, 25 μM
  cytotoxicity: No significant cytotoxicity
H441 (lung cancer) cells; H441, 50 μM
  cell viability: Reduction in cell viability
[3]; dose-dependent, 100 nM-10 μM, LPS 100 ng/mL, 16 h
  decrease of LPS-induced TNFα production: 24-59%
[3]; ex vivo assay
  potency as immunosuppressant relative to CsA: ~10 fold
[4]
  LPS-induced nuclear translocation of NFATc3: completely blocked
HeLa cells [5]
  relative cytosolic delivery efficiency: 109%
HeLa cells [6]; 25 μM
  cytotoxicity: No significant cytotoxicity
HeLa cells [6]; 50 μM
  cell viability: Reduction in cell viability
